# Values of other authors in patent publication US8623868B2, “Processes of making and using pharmaceutical formulations of antineoplastic agents” (Merck Sharp & Dohme Corp., priority 2002, dated 2014).
# What was measured:
# advanced melanoma [1] = conditions: patients with advanced melanoma; Journal of Clinical Oncology 13(4) 1995
# advanced melanoma [2] = conditions: patients having advanced melanoma; Newlands et al., Br J Cancer 1992
smiles,measurement,setting,value
Cn1nnc2c(C(N)=O)ncn2c1=O [Temozolomide],"clinical response achieved, % of patients",advanced melanoma [1],21%
same,water solubility,,water-insoluble
same,"clinical responses achieved, % of patients",advanced melanoma [2],17%
